The results in this text go back to US20070161542A1, “Ptb1b photoprobes” (priority 2003, published 2007).

In series [1] the target is T1, Flag-TCPTP (Homo sapiens, UniProt P17706).
T1 construct: Flag-TCPTP (residues 1-281 as a flag fusion); made in house
T1 sequence (P17706 1-281): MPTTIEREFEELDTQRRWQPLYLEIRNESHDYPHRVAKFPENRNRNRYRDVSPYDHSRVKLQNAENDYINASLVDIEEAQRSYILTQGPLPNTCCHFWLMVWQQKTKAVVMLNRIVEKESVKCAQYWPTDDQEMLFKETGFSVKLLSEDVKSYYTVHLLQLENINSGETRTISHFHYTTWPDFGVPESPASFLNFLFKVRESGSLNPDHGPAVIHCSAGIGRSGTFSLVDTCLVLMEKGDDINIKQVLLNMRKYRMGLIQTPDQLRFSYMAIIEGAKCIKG
The series can be described thus: Enzyme kinetic assay (DiFMUP), Flag-TCPTP. The class given is biochemical. The following applies: in the dark, 10 μM DiFMUP. An excerpt:
(§1) Protein tyrosine phosphatases used in this study were expressed and purified using published procedures, as follows: (a) Flag-PTP1B (residues 1-320 as a flag fusion), Huyer et al. (29). (b) Flag-TCPTP (residues 1-281 as a flag fusion), Asante-Appiah et al. (30). (c) Flag-CD45 (residues 556-1268 as a flag fusion), Wang et al. (31). (d) Mutant C215S-PTP1B (residues 1-320 as a gst fusion), Skorey et al. (28). (e) Infected SF9 cell lysate expressing full-length PTP1B (as a flag fusion), Cromlish et al. (25). For studies using H2O2-inactivated Flag-PTP1B, 100 μl of 2 μg/ml PTP1B was incubated with 100 μl of 1 mM or 20 mM H2O2 for 15 min to obtain 50% or 100% inactivated enzyme respectively as determined by the enzyme kinetic assay.
(§2) Kinetic measurements were performed using a Spectromax Gemini fluorescent plate reader (Molecular Devices, Sunnyvale, Calif.) in a 96-well plate format. […] The conversion of DiFMUP to DiFMU was monitored continuously for 5 min with excitation at 360 nm and emission at 450 nm (cutoff filter at 435 nm). […] Ki values were determined by non-linear regression fit of the initial rates versus substrate concentration at various inhibitor concentrations using the kinetic equation software from Grafit software (Erithacus Software).

In series [2] the target is T2, Flag-CD45 (Mus musculus, UniProt P06800).
T2 construct: Flag-CD45 (residues 556-1268 as a flag fusion); made in house
T2 sequence (P06800 581-1293 limits assumed): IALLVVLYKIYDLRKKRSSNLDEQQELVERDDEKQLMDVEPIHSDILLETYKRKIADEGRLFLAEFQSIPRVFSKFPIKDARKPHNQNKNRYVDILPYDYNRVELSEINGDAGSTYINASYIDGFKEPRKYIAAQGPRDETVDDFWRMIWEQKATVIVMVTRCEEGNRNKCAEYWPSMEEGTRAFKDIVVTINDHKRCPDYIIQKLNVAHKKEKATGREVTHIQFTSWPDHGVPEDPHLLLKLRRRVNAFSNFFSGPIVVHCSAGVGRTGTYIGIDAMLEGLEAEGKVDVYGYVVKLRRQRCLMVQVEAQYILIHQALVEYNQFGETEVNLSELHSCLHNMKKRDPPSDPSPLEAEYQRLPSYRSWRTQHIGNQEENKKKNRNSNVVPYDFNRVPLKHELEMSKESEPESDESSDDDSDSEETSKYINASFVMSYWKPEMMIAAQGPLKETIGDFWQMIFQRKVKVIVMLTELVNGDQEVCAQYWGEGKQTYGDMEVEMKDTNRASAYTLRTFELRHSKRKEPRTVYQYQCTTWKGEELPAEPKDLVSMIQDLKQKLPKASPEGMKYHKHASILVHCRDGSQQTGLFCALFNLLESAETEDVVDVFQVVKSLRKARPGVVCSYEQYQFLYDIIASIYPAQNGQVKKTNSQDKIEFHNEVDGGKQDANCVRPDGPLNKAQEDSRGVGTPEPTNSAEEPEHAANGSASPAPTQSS
The series can be described thus: Enzyme kinetic assay (DiFMUP), Flag-CD45. The class given is biochemical. The following applies: Flag-CD45, in the dark, 10 μM DiFMUP.
Description: as §1, §2

Series [3] has as its target T3, Flag-PTP1B(1-320) (Homo sapiens, UniProt P18031).
T3 construct: Flag-PTP1B (residues 1-320 as a flag fusion); made in house
T3 sequence (P18031 1-320): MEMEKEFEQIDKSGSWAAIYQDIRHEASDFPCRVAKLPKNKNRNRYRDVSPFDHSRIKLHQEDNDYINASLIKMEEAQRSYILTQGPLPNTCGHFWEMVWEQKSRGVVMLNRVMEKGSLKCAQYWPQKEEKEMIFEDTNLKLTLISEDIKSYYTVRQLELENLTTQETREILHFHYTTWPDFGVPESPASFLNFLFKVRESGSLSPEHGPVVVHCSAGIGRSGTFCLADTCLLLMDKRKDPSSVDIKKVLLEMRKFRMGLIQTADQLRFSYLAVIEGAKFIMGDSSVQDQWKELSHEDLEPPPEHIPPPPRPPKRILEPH
The series can be described thus: Enzyme kinetic assay (DiFMUP), Flag-PTP1B. The class given is biochemical. As to conditions: for IC50 shift in the presence of 0.1% protein: 0.1% protein (HSA) vs none; for IC50: in the dark; for Ki: non-irradiated probes, competitive, reversible inhibitors of PTP1B.
Description: as §1
Kinetic measurements were performed using a Spectromax Gemini fluorescent plate reader (Molecular Devices, Sunnyvale, Calif.) in a 96-well plate format. Briefly, to 170 μl of BisTris buffer (50 mM BisTris, with and without 150 mM NaCl, 2 mM EDTA, 5 mM DMH, pH 6.3) containing 0-100 μM DiFMUP with or without 0.1% human serum albumin was added 10 μl of 10 or 50 μM photoprobe in water in a three-fold serial dilution. The reaction was initiated by the addition of 20 μl of 0.04 μg/ml Flag-PTP1B, Flag-TCPTP (0.04 μg/ml) or Flag-CD45 (0.01 μg/ml) in BisTris buffer containing 20% glycerol and 0.01% Triton X-100. The conversion of DiFMUP to DiFMU was monitored continuously for 5 min with excitation at 360 nm and emission at 450 nm (cutoff filter at 435 nm). IC50 values were calculated by nonlinear regression fit of the initial rates versus inhibitor concentration obtained using 10 μM DiFMUP using the Softmax Pro software (version 3.11, Molecular Devices). Ki values were determined by non-linear regression fit of the initial rates versus substrate concentration at various inhibitor concentrations using the kinetic equation software from Grafit software (Erithacus Software).

A short description of series [4]: Photolysis of the probes in water (time course, quantum yield). The class given is physicochemical. As to conditions: chemical actinometry; absorbance at 345 and 350 nm for Examples 9 and 1. The procedure:
A time course for photolysis of the probes in water was determined by measuring product formation by HPLC-MS. […] Based on the time course of photolysis of an aqueous probe with a 40 W lamp, t1/2 values of about 2 min were measured using the 40 W lamp. When a 450 W lamp was used, the t1/2 was reduced to less than 30 sec.
The quantum yield of the photoprobes was determined from the number of photons absorbed and the number of moles of photolysis product that were formed. The number of photons absorbed was determined by chemical actinometry, using the method of Parker (26). The moles of irradiated product produced over time was measured by measuring the absorbance at 345 and 350 nm for Examples 9 and 1 respectively. The quantum yield was calculated to be 0.83 and 0.74 for Examples 9 and 1 respectively.

Where [5] appears, read: Flag-PTP1B(1-320), 10 μM DiFMUP.

As a reminder, the IC50 is the midpoint of a concentration-inhibition curve. In general, Ki refers to a measure of affinity in units of concentration, obtained from inhibition or displacement. Higher therefore signals weaker binding.

On to `NC(=O)[C@H](Cc1ccc(C(F)(F)P(=O)(O)O)c(Br)c1)NC(=O)[C@H](Cc1ccc(C(F)(F)P(=O)(O)O)c(Br)c1)NC(=O)c1cc(I)cc(C2(C(F)(F)F)N=N2)c1` [Example 1, Tetraamnionium 3-bromo-4-(difluoro(phosphonato)methyl)-N-(3-iodo-5-(3-(trifluoromethyl)-3H-diaziren-3-yl)benzoyl)-L-phenylalanyl-3-bromo-4-(difluoro(phosphonato)methyl)-L-phenylalaninamide], for which the IC50 in series [1] turned out to be 0.1 nM; in series [2] it was 490 nM; in series [3] (Fla-PTP1B + 0.1% HSA), 1.5 nM; in series [3] (setting [5]) it was 0.2 nM. In addition, the “IC50 shift in the presence of 0.1% protein” value in series [3] is 7 fold. This compound also displayed a Ki in series [3] of 0.1 nM.
On to `NC(=O)[C@H](Cc1ccc(C(F)(F)P(=O)(O)O)cc1)NC(=O)[C@H](Cc1ccc(C(F)(F)P(=O)(O)O)cc1)NC(=O)c1cc(I)cc(C2(C(F)(F)F)N=N2)c1` [Example 9, 4-(Difluoro(phosphono)methyl)-N-(3-iodo-5-(3-(trifluoromethyl)-3H-diaziren-3-yl)benzoyl)-L-phenylalanyl-4-(difluoro(phosphono)methyl)-L-phenylalaninamide], for which the quantum yield in series [4] is 0.83. Besides, the IC50 in series [1] was found to be 6 nM; in series [2], 12600 nM; in series [3] (Fla-PTP1B + 0.1% HSA), 14 nM; in series [3] (setting [5]), 11 nM. Besides, the “IC50 shift in the presence of 0.1% protein” value in series [3] was “not significantly affected”. The compound also registered a Ki in series [3] of 5 nM.
